The nature of data set [1]: Inherent dissolution rate of tabletted dried crystals in ion exchanged water (Test Example 1). In kind it is physicochemical. Conditions: for amount of crystals dissolved: 300 mg tablet, 300 ml ion exchanged water, 20° C., 200 rpm. The method, then:
Measurement of the Dissolution Rate for the Dried Crystals The dissolution rates of the A-type crystals (Reference Example 2(b)) and the C-type crystals (Example 1) were determined in the following method. That is, 300 mg each of the crystals were introduced into a tabletting mortar (tablet machine) with an internal diameter of 8 mm and a depth of 12 mm, and tabletted at 300 kg/cm2G with “High Pressure Jack J-1 type” (manufactured by Iuchi Seieido) to prepare a sample for measurement of dissolution rate. For measurement of the dissolution rate, the tabletting mortar with only the tabletting face exposed was introduced into 300 ml ion exchanged water kept at 20° C. at a stirring in the number of revolution of 200 rpm, and the inherent dissolution rate was determined using “DISSOLUTION TESTER” (NTR-6100) (manufactured by Toyama Sangyo K. K.).

Data set [2] in a line: Dissolution time, Japanese Pharmacopoeia Paddle method (Test Example 2). It counts as physicochemical. To be noted: 0.5 g sample in 900 ml water (20° C.), 100 rpm, end point visually confirmed. The method, then:
Measurement of the Dissolution Rates of the C-type Crystals (Original Powder) and Granules Thereof 0.5 g of the sample was introduced into 900 ml water (20° C.) in a 1-L elution tester (the Japanese Pharmacopoeia, Paddle method, 100 rpm) and its dissolution time was measured (end point was visually confirmed). That is, the C-type crystals (original powder with an average particle size of about 50 μm) obtained in Example 1 above and the granules (particle size of 100 to 500 μm and 500 to 1,400 μm) of C-type crystals obtained in Example 2 above were examined for measurements of their dissolution times in the same manner as described above.

The conditions of data set [3]: weight ratio, cited from earlier work.

These results are taken from US6790470B1, “Aspartame derivative crystal and process for producing the same” (Ajinomoto Co., Inc., priority 1998, dated 2004).

As to `COC(=O)[C@H](Cc1ccccc1)NC(=O)[C@H](CC(=O)O)NCCC(C)(C)C` [A-type crystals, N-[N-(3,3-dimethylbutyl)-L-α-aspartyl]-L-phenylalanine methyl ester, reference compound], the figures for the “amount of crystals dissolved” value in data set [1] (30 minutes), in data set [1] (60 minutes) and in data set [1] (120 minutes) were 17 mg, 34 mg and 69 mg, respectively.
In data set [2], `COC(=O)[C@H](Cc1ccccc1)NC(=O)[C@H](CC(=O)O)NCCC(C)(C)C` [C-type crystals, N-[N-(3,3-dimethylbutyl)-L-α-aspartyl]-L-phenylalanine methyl ester] displayed a dissolution time of 55 min. The “amount of crystals dissolved” value in data set [1] (30 minutes) is on record as 25 mg; in data set [1] (60 minutes) it was 42 mg; in data set [1] (120 minutes), 86 mg. In addition, the “dissolution rate as compared with the A-type crystals” value in data set [1] (comparison with A-type crystals) is “significantly improved dissolution rate”.
Take `COC(=O)[C@H](Cc1ccccc1)NC(=O)[C@H](CC(=O)O)NCCC(C)(C)C` [N-(3,3-dimethylbutyl)-APM, N-[N-(3,3-dimethylbutyl)-L-α-aspartyl]-L-phenylalanine methyl ester]: in data set [3] (versus Aspartame), the “efficacy of sweetness relative to Aspartame” value is “at least 50 times”. The “efficacy of sweetness relative to sucrose” value in data set [3] (versus sucrose (table sugar)) is reported as “about 10,000 times”.
